Laboratory results published in BindingDB's records for doi:10.1016/j.bioorg.2014.12.001 (Hazara University, 2015).
pIC50: −log10 of the molar value.

Molecular target: Alpha-glucosidase MAL12 (Saccharomyces cerevisiae (strain ATCC 204508 / S288c), UniProt P53341)
Assay: Alpha-glucosidase Assay
Protocol: Typically, α-glucosidase activity was assayed in 50 mM phosphate buffer (pH 6.8) containing 5% v/v DMSO and PNP glycoside was used as a substrate. The inhibitors were pre-incubated with enzyme at 37 °C for 0.5 h. The substrate was then added and the enzymatic reaction was carried out at 37 °C for 60 min. The reaction was monitored spectrophotometrically by measuring the absorbance at 400 nm.

Sequence of Alpha-glucosidase MAL12 (P53341 whole entry): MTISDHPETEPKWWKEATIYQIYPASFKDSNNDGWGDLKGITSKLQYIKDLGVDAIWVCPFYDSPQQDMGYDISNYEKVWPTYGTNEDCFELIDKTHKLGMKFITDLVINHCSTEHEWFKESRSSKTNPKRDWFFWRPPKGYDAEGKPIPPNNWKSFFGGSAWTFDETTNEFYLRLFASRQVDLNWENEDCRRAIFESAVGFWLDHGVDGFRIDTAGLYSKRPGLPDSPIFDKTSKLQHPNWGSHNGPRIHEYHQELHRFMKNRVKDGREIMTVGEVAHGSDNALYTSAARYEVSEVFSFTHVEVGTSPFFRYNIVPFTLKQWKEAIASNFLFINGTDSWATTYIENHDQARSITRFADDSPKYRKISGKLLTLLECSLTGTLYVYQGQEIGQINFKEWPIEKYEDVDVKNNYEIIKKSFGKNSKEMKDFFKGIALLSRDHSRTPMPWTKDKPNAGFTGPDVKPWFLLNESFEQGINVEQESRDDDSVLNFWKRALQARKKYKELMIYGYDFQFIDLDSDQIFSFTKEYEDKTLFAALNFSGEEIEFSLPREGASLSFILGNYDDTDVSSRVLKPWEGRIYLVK

Row | SMILES | pIC50
1 | O=C(CSc1nnc2c(n1)[nH]c1ccccc12)c1cc2ccccc2oc1=O [3-(2-(5H-[1,2,4]triazino[5,6-b]indol-3-ylthio)acetyl)-2H-chromen-2-one (7)] | 4.43
2 | COc1cccc(C(=O)CSc2nnc3c(n2)[nH]c2ccccc23)c1 [2-(5H-[1,2,4]triazino[5,6-b]indol-3-ylthio)-1-(3-methoxyphenyl)-ethanone (10)] | 3.50
3 | O=C(CSc1nnc2c(n1)[nH]c1ccccc12)c1cccc(F)c1 [2-(5H-[1,2,4]triazino[5,6-b]indol-3-ylthio)-1-(3-flourophenyl)-ethanone (5)] | 4.42
4 | COc1ccc(C(=O)CSc2nnc3c(n2)[nH]c2ccccc23)cc1 [2-(5H-[1,2,4]triazino[5,6-b]indol-3-ylthio)-1-(4-methoxyphenyl)-ethanone (4)] | 4.54
5 | CC(Sc1nnc2c(n1)[nH]c1ccccc12)C(=O)c1ccccc1 (stereo not given) [2-(5H-[1,2,4]triazino[5,6-b]indol-3-ylthio)-1-phenylpropane-1-one (8)] | 4.43
6 | O=C(CSc1nnc2c(n1)[nH]c1ccccc12)c1ccc(-c2ccccc2)cc1 [2-(5H-[1,2,4]triazino[5,6-b]indol-3-ylthio)-1-(biphenyl-4-yl)-ethanone (2)] | 4.11
7 | COc1ccccc1C(=O)CSc1nnc2c(n1)[nH]c1ccccc12 [2-(5H-[1,2,4]triazino[5,6-b]indol-3-ylthio)-1-(2-methoxyphenyl)-ethanone (9)] | 4.29
8 | O=C(CSc1nnc2c(n1)[nH]c1ccccc12)c1cccc(O)c1 [2-(5H-[1,2,4]triazino[5,6-b]indol-3-ylthio)-1-(3-hydroxyphenyl)-ethanone (1)] | 5.61
9 | O=C(CSc1nnc2c(n1)[nH]c1ccccc12)c1cccc(Br)c1 [2-(5H-[1,2,4]triazino[5,6-b]indol-3-ylthio)-1-(3-bromophenyl)-ethanone (11)] | 4.43
10 | O=C(CSc1nnc2c(n1)[nH]c1ccccc12)c1ccc(Br)cc1 [2-(5H-[1,2,4]triazino[5,6-b]indol-3-ylthio)-1-(4-bromophenyl)-ethanone (3)] | 4.42
